Source: the kinase profiling compilation of Christmann-Franck et al. (2016)

Tests used:
Assay in all cases: radiometric filter-binding kinase assay, Kinase HotSpot
Details in all cases: compound 0.5 µM; ATP 10 µM
FGFR3 (human) = FGFR3 (human) (UniProt P22607)
MAPKAPK2 (human) = MAPKAPK2 (human) (UniProt P49137)
PDGFRB (human) = PDGFRB (human) (UniProt P09619)
CDK2 CCNA2 (human) = CDK2 CCNA2 (human) (UniProt P24941+P20248)
STK24 (human) = STK24 (human) (UniProt Q9Y6E0)
FES (human) = FES (human) (UniProt P07332)
FGR (human) = FGR (human) (UniProt P09769)
RIPK2 (human) = RIPK2 (human) (UniProt O43353)
CAMKK2 (human) = CAMKK2 (human) (UniProt Q96RR4)
CSNK2A1 (human) = CSNK2A1 (human) (UniProt P68400)
Sequence of CSNK2A1 (human) (P68400 whole entry, looked up): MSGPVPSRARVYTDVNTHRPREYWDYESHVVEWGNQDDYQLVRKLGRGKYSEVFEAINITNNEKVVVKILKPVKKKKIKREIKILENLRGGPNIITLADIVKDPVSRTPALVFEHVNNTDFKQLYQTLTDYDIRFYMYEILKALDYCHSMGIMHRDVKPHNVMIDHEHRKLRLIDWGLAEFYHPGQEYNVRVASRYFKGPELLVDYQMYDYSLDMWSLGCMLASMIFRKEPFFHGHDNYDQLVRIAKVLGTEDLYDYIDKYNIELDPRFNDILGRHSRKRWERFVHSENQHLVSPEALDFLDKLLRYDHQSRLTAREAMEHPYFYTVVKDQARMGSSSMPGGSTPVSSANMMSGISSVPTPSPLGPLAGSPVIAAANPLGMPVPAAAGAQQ

EPHA6 (human) = EPHA6 (human) (UniProt Q9UF33)
KIT (human) = KIT (human) (UniProt P10721)
SIK2 (human) = SIK2 (human) (UniProt Q9H0K1)
STK4 (human) = STK4 (human) (UniProt Q13043)
Sequence of STK4 (human) (Q13043 whole entry, looked up): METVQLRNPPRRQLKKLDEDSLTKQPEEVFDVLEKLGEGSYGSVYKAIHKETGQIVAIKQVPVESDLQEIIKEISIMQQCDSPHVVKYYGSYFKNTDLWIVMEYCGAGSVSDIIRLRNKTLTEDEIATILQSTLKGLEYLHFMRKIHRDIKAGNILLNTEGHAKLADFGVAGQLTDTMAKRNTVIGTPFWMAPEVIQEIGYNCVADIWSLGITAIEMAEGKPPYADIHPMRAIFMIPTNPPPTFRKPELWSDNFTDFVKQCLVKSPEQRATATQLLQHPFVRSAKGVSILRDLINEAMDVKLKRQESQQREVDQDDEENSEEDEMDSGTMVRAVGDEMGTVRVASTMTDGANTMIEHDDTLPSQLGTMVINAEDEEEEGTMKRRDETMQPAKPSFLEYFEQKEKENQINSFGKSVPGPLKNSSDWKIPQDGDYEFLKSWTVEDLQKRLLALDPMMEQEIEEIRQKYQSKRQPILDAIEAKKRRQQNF

KDR (human) = KDR (human) (UniProt P35968)
Sequence of KDR (human) (P35968 whole entry, looked up): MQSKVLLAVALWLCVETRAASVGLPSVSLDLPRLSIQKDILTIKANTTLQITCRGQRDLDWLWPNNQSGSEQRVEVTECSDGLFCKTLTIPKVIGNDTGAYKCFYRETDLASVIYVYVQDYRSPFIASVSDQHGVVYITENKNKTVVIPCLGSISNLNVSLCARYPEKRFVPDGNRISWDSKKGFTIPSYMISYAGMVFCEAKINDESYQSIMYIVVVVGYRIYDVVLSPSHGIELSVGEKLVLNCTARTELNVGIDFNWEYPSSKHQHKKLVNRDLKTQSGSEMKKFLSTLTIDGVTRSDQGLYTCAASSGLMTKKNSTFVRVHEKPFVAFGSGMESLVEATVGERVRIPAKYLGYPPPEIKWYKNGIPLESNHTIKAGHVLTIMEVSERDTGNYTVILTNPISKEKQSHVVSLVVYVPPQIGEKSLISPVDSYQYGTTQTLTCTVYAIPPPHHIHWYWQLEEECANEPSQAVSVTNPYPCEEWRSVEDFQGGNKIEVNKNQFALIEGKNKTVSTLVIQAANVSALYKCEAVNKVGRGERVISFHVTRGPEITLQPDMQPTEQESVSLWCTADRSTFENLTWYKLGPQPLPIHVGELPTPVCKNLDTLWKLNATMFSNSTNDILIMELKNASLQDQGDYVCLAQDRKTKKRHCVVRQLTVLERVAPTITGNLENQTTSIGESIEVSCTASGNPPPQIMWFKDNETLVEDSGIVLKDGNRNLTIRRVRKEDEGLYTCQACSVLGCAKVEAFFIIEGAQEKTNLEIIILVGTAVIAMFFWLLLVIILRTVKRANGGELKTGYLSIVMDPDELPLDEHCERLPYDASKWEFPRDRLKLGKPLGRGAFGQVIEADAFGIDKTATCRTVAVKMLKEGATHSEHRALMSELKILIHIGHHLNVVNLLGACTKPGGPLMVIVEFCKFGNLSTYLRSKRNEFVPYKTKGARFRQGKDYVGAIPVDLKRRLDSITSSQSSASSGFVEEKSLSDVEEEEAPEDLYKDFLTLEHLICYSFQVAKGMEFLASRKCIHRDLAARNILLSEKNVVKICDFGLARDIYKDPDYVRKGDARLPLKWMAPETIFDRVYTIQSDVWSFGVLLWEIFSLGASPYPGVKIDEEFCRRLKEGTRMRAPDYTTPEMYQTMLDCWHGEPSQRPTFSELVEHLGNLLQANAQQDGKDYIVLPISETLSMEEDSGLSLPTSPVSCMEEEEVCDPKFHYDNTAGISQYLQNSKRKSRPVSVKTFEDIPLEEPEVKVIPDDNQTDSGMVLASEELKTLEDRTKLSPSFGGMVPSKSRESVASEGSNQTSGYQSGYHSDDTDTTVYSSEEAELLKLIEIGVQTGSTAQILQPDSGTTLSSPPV

MST1R (human) = MST1R (human) (UniProt Q04912)
PIM2 (human) = PIM2 (human) (UniProt Q9P1W9)
NEK3 (human) = NEK3 (human) (UniProt P51956)
PRKD1 (human) = PRKD1 (human) (UniProt Q15139)
Sequence of PRKD1 (human) (Q15139 whole entry, looked up): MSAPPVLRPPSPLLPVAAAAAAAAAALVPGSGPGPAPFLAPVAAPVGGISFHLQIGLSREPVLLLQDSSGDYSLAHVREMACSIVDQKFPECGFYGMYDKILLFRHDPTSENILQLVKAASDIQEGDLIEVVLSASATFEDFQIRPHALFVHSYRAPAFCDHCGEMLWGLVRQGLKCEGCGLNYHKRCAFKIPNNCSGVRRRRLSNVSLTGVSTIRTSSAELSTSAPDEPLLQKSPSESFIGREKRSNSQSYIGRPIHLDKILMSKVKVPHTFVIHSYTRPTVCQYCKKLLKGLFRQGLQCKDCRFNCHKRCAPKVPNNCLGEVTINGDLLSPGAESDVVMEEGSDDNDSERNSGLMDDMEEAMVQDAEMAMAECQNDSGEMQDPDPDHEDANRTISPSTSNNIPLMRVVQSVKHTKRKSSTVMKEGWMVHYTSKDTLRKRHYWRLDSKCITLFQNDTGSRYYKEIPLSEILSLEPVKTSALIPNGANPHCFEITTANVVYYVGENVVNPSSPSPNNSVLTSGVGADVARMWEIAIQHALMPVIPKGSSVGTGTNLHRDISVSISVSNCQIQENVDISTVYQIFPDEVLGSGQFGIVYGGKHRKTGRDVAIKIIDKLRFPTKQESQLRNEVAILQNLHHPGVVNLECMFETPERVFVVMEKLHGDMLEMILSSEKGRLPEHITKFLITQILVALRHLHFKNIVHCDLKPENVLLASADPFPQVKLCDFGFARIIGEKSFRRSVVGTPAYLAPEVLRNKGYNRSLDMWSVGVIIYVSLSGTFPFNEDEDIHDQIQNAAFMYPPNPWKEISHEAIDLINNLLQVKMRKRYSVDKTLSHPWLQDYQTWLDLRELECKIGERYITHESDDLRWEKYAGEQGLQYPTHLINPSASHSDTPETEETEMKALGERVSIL

MAP3K7 TAB1 (human) = MAP3K7 TAB1 (human) (UniProt O43318+Q15750)
HIPK2 (human) = HIPK2 (human) (UniProt Q9H2X6)
SGK2 (human) = SGK2 (human) (UniProt Q9HBY8)
TAOK3 (human) = TAOK3 (human) (UniProt Q9H2K8)
DYRK1B (human) = DYRK1B (human) (UniProt Q9Y463)
STK16 (human) = STK16 (human) (UniProt O75716)
MAP4K4 (human) = MAP4K4 (human) (UniProt O95819)
CLK4 (human) = CLK4 (human) (UniProt Q9HAZ1)
ACVR1 (human) = ACVR1 (human) (UniProt Q04771)
OXSR1 (human) = OXSR1 (human) (UniProt O95747)
ABL2 (human) = ABL2 (human) (UniProt P42684)
[1] = target: TYK2 JH1 catalytic (human) (UniProt P29597)
SYK (human) = SYK (human) (UniProt P43405)
PBK (human) = PBK (human) (UniProt Q96KB5)
ROCK1 (human) = ROCK1 (human) (UniProt Q13464)
TTK (human) = TTK (human) (UniProt P33981)
NUAK2 (human) = NUAK2 (human) (UniProt Q9H093)
AKT2 (human) = AKT2 (human) (UniProt P31751)
EPHA8 (human) = EPHA8 (human) (UniProt P29322)
IGF1R (human) = IGF1R (human) (UniProt P08069)
PTK2 (human) = PTK2 (human) (UniProt Q05397)
Sequence of PTK2 (human) (Q05397 whole entry, looked up): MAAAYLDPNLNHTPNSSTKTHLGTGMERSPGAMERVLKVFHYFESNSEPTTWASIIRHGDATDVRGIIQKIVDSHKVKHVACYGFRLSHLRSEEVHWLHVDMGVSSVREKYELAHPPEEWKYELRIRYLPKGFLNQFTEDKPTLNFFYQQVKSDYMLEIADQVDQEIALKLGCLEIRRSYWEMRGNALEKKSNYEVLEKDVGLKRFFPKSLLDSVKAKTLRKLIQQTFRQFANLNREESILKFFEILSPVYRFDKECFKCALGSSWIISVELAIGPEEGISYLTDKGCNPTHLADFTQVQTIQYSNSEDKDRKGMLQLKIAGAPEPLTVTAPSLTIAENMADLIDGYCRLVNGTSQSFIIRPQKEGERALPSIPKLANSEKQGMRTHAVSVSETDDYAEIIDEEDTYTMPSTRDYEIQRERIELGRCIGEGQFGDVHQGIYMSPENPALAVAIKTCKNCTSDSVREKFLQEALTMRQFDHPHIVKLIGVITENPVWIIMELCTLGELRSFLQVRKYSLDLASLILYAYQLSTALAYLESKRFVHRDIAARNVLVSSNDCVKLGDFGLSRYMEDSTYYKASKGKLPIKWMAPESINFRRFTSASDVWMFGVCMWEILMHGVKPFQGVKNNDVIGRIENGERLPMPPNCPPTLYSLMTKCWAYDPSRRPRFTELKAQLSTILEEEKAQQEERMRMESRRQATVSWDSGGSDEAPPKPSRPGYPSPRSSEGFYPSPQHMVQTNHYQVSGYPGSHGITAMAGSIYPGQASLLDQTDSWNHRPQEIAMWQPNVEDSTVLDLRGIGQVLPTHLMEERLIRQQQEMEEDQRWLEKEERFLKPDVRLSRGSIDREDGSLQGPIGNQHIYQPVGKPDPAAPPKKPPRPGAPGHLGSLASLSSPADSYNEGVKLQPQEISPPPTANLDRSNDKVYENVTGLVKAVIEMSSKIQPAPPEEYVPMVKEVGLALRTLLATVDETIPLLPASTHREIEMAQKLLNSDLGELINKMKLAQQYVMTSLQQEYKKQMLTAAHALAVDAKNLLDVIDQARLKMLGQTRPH

NEK6 (human) = NEK6 (human) (UniProt Q9HC98)
Sequence of NEK6 (human) (Q9HC98 whole entry, looked up): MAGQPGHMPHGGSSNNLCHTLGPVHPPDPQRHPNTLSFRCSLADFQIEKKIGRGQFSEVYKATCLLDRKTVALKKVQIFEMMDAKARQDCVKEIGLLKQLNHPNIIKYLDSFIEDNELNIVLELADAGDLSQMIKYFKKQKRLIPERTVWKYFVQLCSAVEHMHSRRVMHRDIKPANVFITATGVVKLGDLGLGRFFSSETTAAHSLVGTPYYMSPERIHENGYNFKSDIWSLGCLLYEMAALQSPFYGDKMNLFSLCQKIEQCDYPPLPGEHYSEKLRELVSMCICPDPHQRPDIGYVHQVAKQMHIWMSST

PRKCA (human) = PRKCA (human) (UniProt P17252)

Sequence of CDK2 CCNA2 (human) (P20248 whole entry, looked up, other chains not shown): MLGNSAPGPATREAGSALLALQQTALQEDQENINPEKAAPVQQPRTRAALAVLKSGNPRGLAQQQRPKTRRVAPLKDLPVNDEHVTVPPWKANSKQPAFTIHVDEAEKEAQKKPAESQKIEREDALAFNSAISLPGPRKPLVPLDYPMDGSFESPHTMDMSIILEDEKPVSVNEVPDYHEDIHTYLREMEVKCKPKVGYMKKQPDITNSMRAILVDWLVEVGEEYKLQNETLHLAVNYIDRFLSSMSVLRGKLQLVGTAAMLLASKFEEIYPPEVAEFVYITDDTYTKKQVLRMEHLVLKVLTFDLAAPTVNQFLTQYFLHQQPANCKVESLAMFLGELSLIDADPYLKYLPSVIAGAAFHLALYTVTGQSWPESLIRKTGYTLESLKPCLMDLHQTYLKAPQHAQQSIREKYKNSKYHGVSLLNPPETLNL

In the case of Cc1[nH]c(/C=C2\C(=O)Nc3ccc(S(=O)(=O)N(C)c4cccc(Cl)c4)cc32)c(C)c1C(=O)N1CCN(C)CC1, the residual activity (FGFR3 (human)) was 74.1%, the residual activity (MAPKAPK2 (human)) was 104% and the residual activity (PDGFRB (human)) was 76.4%. The residual activity (CDK2 CCNA2 (human)) was 103%, the residual activity (STK24 (human)) was 49.6% and the residual activity (FES (human)) was 96%. For the same molecule, the residual activity (FGR (human)) was 39.2%, the residual activity (RIPK2 (human)) was 92.7% and the residual activity (CAMKK2 (human)) was 75.2%. The residual activity (CSNK2A1 (human)) was 78.8%, the residual activity (EPHA6 (human)) was 24% and the residual activity (KIT (human)) was 51.3%. It also gave a residual activity (SIK2 (human)) of 86%, a residual activity (STK4 (human)) of 49.1% and a residual activity (KDR (human)) of 79.4%. For the same molecule, the residual activity (MST1R (human)) was 103%, the residual activity (PIM2 (human)) was 103% and the residual activity (NEK3 (human)) was 98.7%. The residual activity (PRKD1 (human)) was 61.8%, the residual activity (MAP3K7 TAB1 (human)) was 79.8% and the residual activity (HIPK2 (human)) was 105%. For the same molecule, the residual activity (SGK2 (human)) was 103%, the residual activity (TAOK3 (human)) was 61.5% and the residual activity (DYRK1B (human)) was 98.9%. It also gave a residual activity (STK16 (human)) of 95.4%, a residual activity (MAP4K4 (human)) of 40.9% and a residual activity (CLK4 (human)) of 34.3%. It also gave a residual activity (ACVR1 (human)) of 96.8%, a residual activity (OXSR1 (human)) of 116% and a residual activity (ABL2 (human)) of 73.2%. For the same molecule, the residual activity [1] was 75.1%, the residual activity (SYK (human)) was 96.7% and the residual activity (PBK (human)) was 104%. For the same molecule, the residual activity (ROCK1 (human)) was 84%, the residual activity (TTK (human)) was 90.7% and the residual activity (NUAK2 (human)) was 61.9%. The residual activity (AKT2 (human)) was 102%, the residual activity (EPHA8 (human)) was 91.7% and the residual activity (IGF1R (human)) was 103%. For the same molecule, the residual activity (PTK2 (human)) was 96.8%, the residual activity (NEK6 (human)) was 104% and the residual activity (PRKCA (human)) was 91.9%.

Work on O=C1NC(=O)/C(=C/c2ccc3c(c2)OC(F)(F)O3)S1 yielded a residual activity (FGFR3 (human)) of 96.4%, a residual activity (MAPKAPK2 (human)) of 94.4% and a residual activity (PDGFRB (human)) of 97.4%. It also gave a residual activity (CDK2 CCNA2 (human)) of 107%, a residual activity (STK24 (human)) of 91.9% and a residual activity (FES (human)) of 98.3%. For the same molecule, the residual activity (FGR (human)) was 95.8%, the residual activity (RIPK2 (human)) was 88.2% and the residual activity (CAMKK2 (human)) was 82.9%. The residual activity (CSNK2A1 (human)) was 22.6%, the residual activity (EPHA6 (human)) was 83.1% and the residual activity (KIT (human)) was 93.4%. It also gave a residual activity (SIK2 (human)) of 101%, a residual activity (STK4 (human)) of 93.3% and a residual activity (KDR (human)) of 94.6%. It also gave a residual activity (MST1R (human)) of 100%, a residual activity (PIM2 (human)) of 91.9% and a residual activity (NEK3 (human)) of 92.6%. The residual activity (PRKD1 (human)) was 94.8%, the residual activity (MAP3K7 TAB1 (human)) was 95.3% and the residual activity (HIPK2 (human)) was 104%. For the same molecule, the residual activity (SGK2 (human)) was 82.2%, the residual activity (TAOK3 (human)) was 84.7% and the residual activity (DYRK1B (human)) was 101%. It also gave a residual activity (STK16 (human)) of 91%, a residual activity (MAP4K4 (human)) of 95.3% and a residual activity (CLK4 (human)) of 88.8%. It also gave a residual activity (ACVR1 (human)) of 97.4%, a residual activity (OXSR1 (human)) of 97.1% and a residual activity (ABL2 (human)) of 96%. It also gave a residual activity [1] of 88.4%, a residual activity (SYK (human)) of 95.3% and a residual activity (PBK (human)) of 91.8%. The residual activity (ROCK1 (human)) was 93.7%, the residual activity (TTK (human)) was 102% and the residual activity (NUAK2 (human)) was 74.8%. For the same molecule, the residual activity (AKT2 (human)) was 96.2%, the residual activity (EPHA8 (human)) was 93.8% and the residual activity (IGF1R (human)) was 101%. For the same molecule, the residual activity (PTK2 (human)) was 94.9%, the residual activity (NEK6 (human)) was 113% and the residual activity (PRKCA (human)) was 106%.
